Source: patent US20240342947A1, “A WOOD PRESERVATIVE COMPOSITION COMPRISING 4,5-DICHLORO-2-OCTYLISOTHIAZOL-3(2H)-ONE, A METHOD TREATING A WOOD SUBSTRATE THEREWITH, AND A WOOD PRODUCT PRODUCED THEREFROM” (KOPPERS PERFORMANCE CHEMICALS, INC., priority 2021, published 2024)

Assay: #2 Diesel solvency for DCOI testing
Type: physicochemical
Protocol: Solvency (i.e., ability to dissolve) of #2 diesel for DCOI was measured. Initially, different amounts of DCOI (98.5% purity) was dissolved in #2 diesel in respective vials to make a DCOI concentrate. Thereafter, the vials were stored at ambient temperature (i.e., 21 degrees Celsius+/−2 degrees) or 4 degrees Celsius for up to 7 days. During storage, the vials were monitored for phase separation, precipitation, and turbidity, which may indicate incompatibility between the organic solvent and the DCOI. Whenever a phase separation, precipitation or solution turbidity event happened, the vial was no longer monitored and the DCOI concentration in that solution was considered to be higher than the solvency of the organic solvent.
After two hours of storage at ambient temperature, it was observed that the solvency of #2 diesel for DCOI without any additional polar solvents was no greater than 15% by weight because the DCOI precipitated in the vials containing concentrations of DCOI of greater than 15% by weight. […] Therefore, the maximum solvency of #2 diesel is for DCOI was determined to be 15% by weight.

In the case of `CCCCCCCCn1sc(Cl)c(Cl)c1=O` [DCOI, 4,5-dichloro-2-octylisothiazol-3 (2H)-one], the “solvency of #2 diesel for DCOI” value (after two hours of storage at ambient temperature, without any additional polar solvents) is reported as at most 15 % by weight and the “maximum solvency of #2 diesel for DCOI” value (ambient temperature, no solid DCOI precipitated after 7 days) is reported as 15 % by weight.
